Test results published in patent US20260262643A1, “HERBICIDAL BENZOXAZINES” (FMC CORPORATION, priority 2022, published 2026).

Assays:
sedge, umbrella = assay: Test D flooded paddy test; type: in vivo, Cyperus difformis; settings: 250 g ai/ha, applied to paddy water, visual rating after 13 to 14 days, scale 0 to 100 (0 no effect, 100 complete control)
How it was run: (§1)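 Plants at the 2-leaf stage were grown in pots flooded to 3 cm, and compound was applied directly into the paddy water, with depth kept throughout. After 13–14 days in a greenhouse, injury was rated visually against untreated controls on a 0–100 scale (100 = complete control); a dash means not tested.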

ragweed [1] = assay: Test C preemergence; type: in vivo, Ambrosia artemisiifolia; settings: preemergence, 0 to 100 scale (0 no effect, 100 complete control)
How it was run: (§2)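 Visual injury score, 0–100 (100 = complete control), taken 10 days after treatment relative to untreated controls. Pre: directed spray onto soil over sown seeds. Post: foliar spray at one- to two-leaf stage, 2–10 cm. Solvent/surfactant formulation; loam–sand soil; greenhouse.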

green foxtail [2] = assay: Test C preemergence; type: in vivo, Setaria viridis; settings: preemergence, 0 to 100 scale (0 no effect, 100 complete control)
How it was run: as §2

blackgrass [3] = assay: Test C preemergence; type: in vivo, Alopecurus myosuroides; settings: preemergence, 0 to 100 scale (0 no effect, 100 complete control)
How it was run: as §2

corn [4] = assay: Test C preemergence; type: in vivo, Zea mays; settings: preemergence, 0 to 100 scale (0 no effect, 100 complete control)
How it was run: as §2

galium = assay: Test C postemergence; type: in vivo, Galium aparine; settings: postemergence, 10 days
How it was run: as §2

barnyardgrass [5] = assay: Test C preemergence; type: in vivo, Echinochloa crusgalli; settings: preemergence, 0 to 100 scale (0 no effect, 100 complete control)
How it was run: as §2

ryegrass, Italian [6] = assay: Test C postemergence; type: in vivo, Lolium multiflorum; settings: postemergence, 10 days
How it was run: as §2

green foxtail [7] = assay: Test C postemergence; type: in vivo, Setaria viridis; settings: postemergence, 10 days
How it was run: as §2

rice = assay: Test D flooded paddy test; type: in vivo, Oryza sativa; settings: 250 g ai/ha, applied to paddy water, visual rating after 13 to 14 days, scale 0 to 100 (0 no effect, 100 complete control)
How it was run: as §1

blackgrass [8] = assay: Test C postemergence; type: in vivo, Alopecurus myosuroides; settings: postemergence, 10 days
How it was run: as §2

corn [9] = assay: Test C postemergence; type: in vivo, Zea mays; settings: postemergence, 10 days
How it was run: as §2

wheat [10] = assay: Test C postemergence; type: in vivo, Triticum aestivum; settings: postemergence, 10 days
How it was run: as §2

barnyardgrass [11] = assay: Test D flooded paddy test; type: in vivo, Echinochloa crus-galli; settings: 250 g ai/ha, applied to paddy water, visual rating after 13 to 14 days, scale 0 to 100 (0 no effect, 100 complete control)
How it was run: as §1

wheat [12] = assay: Test C preemergence; type: in vivo, Triticum aestivum; settings: preemergence, 0 to 100 scale (0 no effect, 100 complete control)
How it was run: as §2

pigweed, palmer [13] = assay: Test C postemergence; type: in vivo, Amaranthus palmeri; settings: postemergence, 10 days
How it was run: as §2

pigweed, palmer [14] = assay: Test C preemergence; type: in vivo, Amaranthus palmeri; settings: preemergence, 0 to 100 scale (0 no effect, 100 complete control)
How it was run: as §2

horseweed = assay: Test C postemergence; type: in vivo, Erigeron canadensis; settings: postemergence, 10 days
How it was run: as §2

oat, wild [15] = assay: Test C postemergence; type: in vivo, Avena fatua; settings: postemergence, 10 days
How it was run: as §2

soybean [16] = assay: Test C postemergence; type: in vivo, Glycine max; settings: postemergence, 10 days
How it was run: as §2

barnyardgrass [17] = assay: Test C postemergence; type: in vivo, Echinochloa crusgalli; settings: postemergence, 10 days
How it was run: as §2

ragweed [18] = assay: Test C postemergence; type: in vivo, Ambrosia artemisiifolia; settings: postemergence, 10 days
How it was run: as §2

oat, wild [19] = assay: Test C preemergence; type: in vivo, Avena fatua; settings: preemergence, 0 to 100 scale (0 no effect, 100 complete control)
How it was run: as §2

ryegrass, Italian [20] = assay: Test C preemergence; type: in vivo, Lolium multiflorum; settings: preemergence, 0 to 100 scale (0 no effect, 100 complete control)
How it was run: as §2

soybean [21] = assay: Test C preemergence; type: in vivo, Glycine max; settings: preemergence, 0 to 100 scale (0 no effect, 100 complete control)
How it was run: as §2

ducksalad = assay: Test D flooded paddy test; type: in vivo, Heteranthera limosa; settings: 250 g ai/ha, applied to paddy water, visual rating after 13 to 14 days, scale 0 to 100 (0 no effect, 100 complete control)
How it was run: as §1

kochia [22] = assay: Test C postemergence; type: in vivo, Bassia scoparia; settings: postemergence, 10 days
How it was run: as §2

kochia [23] = assay: Test C preemergence; type: in vivo, Bassia scoparia; settings: preemergence, 0 to 100 scale (0 no effect, 100 complete control)
How it was run: as §2

[24] = 125 g ai/ha, 0 to 100 scale, 0 no effect, 100 complete control
[25] = 500 g ai/ha, 0 to 100 scale (0 no effect, 100 complete control)

CC(C)c1ncn(-c2cccc(C(=O)N3CC(C(F)(F)F)Oc4c(Cl)cccc43)c2)n1 (single isomer, unassigned) [Compound 289]
40: Plant response rating, Ryegrass, Italian (ryegrass, Italian [6]; [24]) | Plant response rating, Wheat (wheat [10]; [25]) | Plant response rating, Horseweed (horseweed; [25])
90: Blackgrass plant response rating (blackgrass [3]; 500 g ai/ha) | Plant response rating, Ryegrass, Italian (ryegrass, Italian [6]; [25]) | Plant response rating, Foxtail, Green (green foxtail [7]; [25]) | Plant response rating, Pigweed, Palmer (pigweed, palmer [13]; [24]) | Plant response rating, Soybean (soybean [16]; [25]) | Oat, Wild plant response rating (oat, wild [19]; 500 g ai/ha) | Soybean plant response rating (soybean [21]; 500 g ai/ha) | Soybean plant response rating (soybean [21]; Test C, 125 g ai/ha) | Plant response rating, Kochia (kochia [22]; [25])
100: Plant response rating, Sedge, Umbrella (Flood) (sedge, umbrella) | Foxtail, Green plant response rating (green foxtail [2]; 500 g ai/ha) | Foxtail, Green plant response rating (green foxtail [2]; Test C, 125 g ai/ha) | Plant response rating, Galium (galium; [24]) | Plant response rating, Galium (galium; [25]) | Barnyardgrass plant response rating (barnyardgrass [5]; 500 g ai/ha) | Plant response rating, Blackgrass (blackgrass [8]; [25]) | Plant response rating, Pigweed, Palmer (pigweed, palmer [13]; [25]) | Pigweed, Palmer plant response rating (pigweed, palmer [14]; 500 g ai/ha) | Pigweed, Palmer plant response rating (pigweed, palmer [14]; Test C, 125 g ai/ha) | Plant response rating, Soybean (soybean [16]; [24]) | Ryegrass, Italian plant response rating (ryegrass, Italian [20]; 500 g ai/ha) | Ryegrass, Italian plant response rating (ryegrass, Italian [20]; Test C, 125 g ai/ha) | Kochia plant response rating (kochia [23]; 500 g ai/ha)
30: Plant response rating, Blackgrass (blackgrass [8]; [24]) | Plant response rating, Corn (corn [9]; [25]) | Wheat plant response rating (wheat [12]; Test C, 125 g ai/ha) | Plant response rating, Oat, Wild (oat, wild [15]; [24]) | Plant response rating, Barnyardgrass (barnyardgrass [17]; [24])
0: Plant response rating, Horseweed (horseweed; [24])
70: Ragweed plant response rating (ragweed [1]; 500 g ai/ha) | Plant response rating, Ragweed (ragweed [18]; [25]) | Kochia plant response rating (kochia [23]; Test C, 125 g ai/ha)
80: Blackgrass plant response rating (blackgrass [3]; Test C, 125 g ai/ha) | Oat, Wild plant response rating (oat, wild [19]; Test C, 125 g ai/ha) | Plant response rating, Kochia (kochia [22]; [24])
50: Ragweed plant response rating (ragweed [1]; Test C, 125 g ai/ha) | Plant response rating, Barnyardgrass (Flood) (barnyardgrass [11]) | Wheat plant response rating (wheat [12]; 500 g ai/ha)
20: Corn plant response rating (corn [4]; 500 g ai/ha) | Plant response rating, Foxtail, Green (green foxtail [7]; [24]) | Plant response rating, Corn (corn [9]; [24]) | Plant response rating, Wheat (wheat [10]; [24])
65: Plant response rating, Ducksalad (Flood) (ducksalad)
60: Barnyardgrass plant response rating (barnyardgrass [5]; Test C, 125 g ai/ha) | Plant response rating, Oat, Wild (oat, wild [15]; [25]) | Plant response rating, Barnyardgrass (barnyardgrass [17]; [25]) | Plant response rating, Ragweed (ragweed [18]; [24])
10: Corn plant response rating (corn [4]; Test C, 125 g ai/ha) | Plant response rating, Rice (Flood) (rice)
